Measurements as given in ChEMBL document CHEMBL1201862, “PubChem BioAssay data set” (2004).
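Where inhibition never reached the appropriate level, the endpoint shown equals the highest concentration tested. Otherwise, values were interpolated linearly from a five-concentration, 48-hour dose response in 96-well plates. GI50 marks 50% less growth.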 Active and inactive are the calls of the source. Rule as the data show it: active = GI50 up to about 1.1 µM and inactive = higher.

Columns and labels:
Assay in all cases: DTP human tumour cell line panel, 48 h
NCI-H460 = system: NCI-H460
NCI-H522 = system: NCI-H522
COLO 205 = system: COLO 205
NCI-H226 = system: NCI-H226
M19-MEL = system: M19-MEL
OVCAR-5 = system: OVCAR-5
U-251 = system: U-251
SK-OV-3 = system: SK-OV-3
DMS-114 = system: DMS-114
SF-268 = system: SF-268
SN12C = system: SN12C
RXF 393 = system: RXF 393
SK-MEL-5 = system: SK-MEL-5
KM12 = system: KM12
SNB-19 = system: SNB-19
OVCAR-8 = system: OVCAR-8
HCC 2998 = system: HCC 2998
SNB-75 = system: SNB-75
SW-620 = system: SW-620
SK-MEL-2 = system: SK-MEL-2
ACHN = system: ACHN
HOP-62 = system: HOP-62
SK-MEL-28 = system: SK-MEL-28
LXFL 529 = system: LXFL 529
HT-29 = system: HT-29
SR = system: SR
HCT-116 = system: HCT-116
A498 = system: A498
TK-10 = system: TK-10
RPMI-8226 = system: RPMI-8226
CCRF-CEM = system: CCRF-CEM
DMS-273 = system: DMS-273
MOLT-4 = system: MOLT-4
XF498 = system: XF498
KM-20L2 = system: KM-20L2
IGROV-1 = system: IGROV-1
UACC-257 = system: UACC-257
OVCAR-4 = system: OVCAR-4
EKVX = system: EKVX
SF-295 = system: SF-295
CAKI-1 = system: CAKI-1
HL-60 = system: HL-60
SF-539 = system: SF-539
M14 = system: M14
HOP-92 = system: HOP-92
SNB-78 = system: SNB-78
HCT-15 = system: HCT-15
LOX IMVI = system: LOX IMVI
UACC-62 = system: UACC-62
UO-31 = system: UO-31
K562 = system: K562
A549 = system: A549
NCI-H23 = system: NCI-H23
DLD-1 = system: DLD-1
Malme-3M = system: Malme-3M
786-0 = system: 786-0
HOP-18 = system: HOP-18

Cc1nc(Nc2nnc(-c3cc([N+](=O)[O-])cc([N+](=O)[O-])c3C)o2)sc1C(=O)CC(=O)Cc1nc2ccc(Cl)cc2nc1O
GI50 (NCI-H460): > 100 µM (inactive)
GI50 (NCI-H522): 61.4 µM (inactive)
GI50 (COLO 205): > 100 µM (inactive)
GI50 (NCI-H226): > 100 µM (inactive)
GI50 (M19-MEL): > 100 µM (inactive)
GI50 (OVCAR-5): > 100 µM (inactive)
GI50 (U-251): > 100 µM (inactive)
GI50 (SK-OV-3): > 100 µM (inactive)
GI50 (DMS-114): > 100 µM (inactive)
GI50 (SF-268): > 100 µM (inactive)
GI50 (SN12C): > 100 µM (inactive)
GI50 (RXF 393): > 100 µM (inactive)
GI50 (SK-MEL-5): > 100 µM (inactive)
GI50 (KM12): > 100 µM (inactive)
GI50 (SNB-19): > 100 µM (inactive)
GI50 (OVCAR-8): > 100 µM (inactive)
GI50 (HCC 2998): > 100 µM (inactive)
GI50 (SNB-75): > 100 µM (inactive)
GI50 (SW-620): > 100 µM (inactive)
GI50 (SK-MEL-2): > 100 µM (inactive)
GI50 (ACHN): > 100 µM (inactive)
GI50 (HOP-62): > 100 µM (inactive)
GI50 (SK-MEL-28): > 100 µM (inactive)
GI50 (LXFL 529): > 100 µM (inactive)
GI50 (HT-29): > 100 µM (inactive)
GI50 (SR): 77.6 µM (inactive)
GI50 (HCT-116): > 100 µM (inactive)
GI50 (A498): > 100 µM (inactive)
GI50 (TK-10): > 100 µM (inactive)
GI50 (RPMI-8226): > 100 µM (inactive)
GI50 (CCRF-CEM): > 100 µM (inactive)
GI50 (DMS-273): 50.5 µM (inactive)
GI50 (MOLT-4): > 100 µM (inactive)
GI50 (XF498): > 100 µM (inactive)
GI50 (KM-20L2): > 100 µM (inactive)
GI50 (IGROV-1): > 100 µM (inactive)
GI50 (UACC-257): > 100 µM (inactive)
GI50 (OVCAR-4): > 100 µM (inactive)
GI50 (EKVX): 37.3 µM (inactive)
GI50 (SF-295): > 100 µM (inactive)
GI50 (CAKI-1): > 100 µM (inactive)
GI50 (HL-60): > 100 µM (inactive)
GI50 (SF-539): > 100 µM (inactive)
GI50 (M14): > 100 µM (inactive)
GI50 (HOP-92): > 100 µM (inactive)
GI50 (SNB-78): 93.5 µM (inactive)
GI50 (HCT-15): > 100 µM
GI50 (LOX IMVI): > 100 µM (inactive)
GI50 (UACC-62): 33.6 µM (inactive)
GI50 (UO-31): > 100 µM (inactive)
GI50 (K562): 41.8 µM (inactive)
GI50 (A549): > 100 µM (inactive)
GI50 (NCI-H23): > 100 µM (inactive)

CC(=O)OCC1OC(OC2C(COC(C)=O)OC(Sc3ccccc3C)C(OC(C)=O)C2OC(C)=O)C(OC(C)=O)C(OC(C)=O)C1OC(C)=O (stereo not given)
GI50 (NCI-H460): > 100 µM (inactive)
GI50 (NCI-H522): > 100 µM (inactive)
GI50 (COLO 205): > 100 µM (inactive)
GI50 (NCI-H226): > 100 µM (inactive)
GI50 (M19-MEL): > 100 µM (inactive)
GI50 (OVCAR-5): > 100 µM (inactive)
GI50 (DLD-1): > 100 µM (inactive)
GI50 (U-251): > 100 µM (inactive)
GI50 (SK-OV-3): > 100 µM (inactive)
GI50 (DMS-114): > 100 µM (inactive)
GI50 (SF-268): > 100 µM (inactive)
GI50 (SN12C): > 100 µM (inactive)
GI50 (RXF 393): > 100 µM (inactive)
GI50 (SK-MEL-5): > 100 µM (inactive)
GI50 (KM12): > 100 µM (inactive)
GI50 (SNB-19): > 100 µM (inactive)
GI50 (HCC 2998): > 100 µM (inactive)
GI50 (Malme-3M): > 100 µM (inactive)
GI50 (SNB-75): > 100 µM (inactive)
GI50 (786-0): > 100 µM (inactive)
GI50 (SW-620): > 100 µM (inactive)
GI50 (SK-MEL-2): > 100 µM (inactive)
GI50 (ACHN): > 100 µM (inactive)
GI50 (HOP-62): > 100 µM (inactive)
GI50 (SK-MEL-28): > 100 µM (inactive)
GI50 (LXFL 529): > 100 µM (inactive)
GI50 (HT-29): > 100 µM (inactive)
GI50 (HOP-18): > 100 µM (inactive)
GI50 (SR): > 100 µM (inactive)
GI50 (HCT-116): > 100 µM (inactive)
GI50 (A498): > 100 µM (inactive)
GI50 (TK-10): > 100 µM (inactive)
GI50 (RPMI-8226): > 100 µM (inactive)
GI50 (DMS-273): > 100 µM (inactive)
GI50 (MOLT-4): > 100 µM (inactive)
GI50 (KM-20L2): > 100 µM (inactive)
GI50 (IGROV-1): > 100 µM (inactive)
GI50 (UACC-257): > 100 µM (inactive)
GI50 (OVCAR-4): > 100 µM (inactive)
GI50 (EKVX): > 100 µM (inactive)
GI50 (SF-295): > 100 µM (inactive)
GI50 (CAKI-1): > 100 µM (inactive)
GI50 (SF-539): > 100 µM (inactive)
GI50 (M14): > 100 µM (inactive)
GI50 (HOP-92): 55 µM (inactive)
GI50 (SNB-78): > 100 µM (inactive)
GI50 (HCT-15): > 100 µM
GI50 (UACC-62): > 100 µM (inactive)
GI50 (UO-31): > 100 µM (inactive)
GI50 (K562): > 100 µM (inactive)
GI50 (A549): > 100 µM (inactive)
GI50 (NCI-H23): > 100 µM (inactive)
